According to ChEMBL document CHEMBL5241085, “Pyrazolotriazines: Biological activities, synthetic strategies and recent developments” (Eur J Med Chem, 2021):
In brackets after ≈: the same amount, converted by molar mass.

What was measured:
[1] = molecular target: T1, Tyrosinase (Homo sapiens, UniProt P14679); assay: Inhibition of tyrosinase (unknown origin) incubated for 20 mins
T1 sequence (P14679 whole entry): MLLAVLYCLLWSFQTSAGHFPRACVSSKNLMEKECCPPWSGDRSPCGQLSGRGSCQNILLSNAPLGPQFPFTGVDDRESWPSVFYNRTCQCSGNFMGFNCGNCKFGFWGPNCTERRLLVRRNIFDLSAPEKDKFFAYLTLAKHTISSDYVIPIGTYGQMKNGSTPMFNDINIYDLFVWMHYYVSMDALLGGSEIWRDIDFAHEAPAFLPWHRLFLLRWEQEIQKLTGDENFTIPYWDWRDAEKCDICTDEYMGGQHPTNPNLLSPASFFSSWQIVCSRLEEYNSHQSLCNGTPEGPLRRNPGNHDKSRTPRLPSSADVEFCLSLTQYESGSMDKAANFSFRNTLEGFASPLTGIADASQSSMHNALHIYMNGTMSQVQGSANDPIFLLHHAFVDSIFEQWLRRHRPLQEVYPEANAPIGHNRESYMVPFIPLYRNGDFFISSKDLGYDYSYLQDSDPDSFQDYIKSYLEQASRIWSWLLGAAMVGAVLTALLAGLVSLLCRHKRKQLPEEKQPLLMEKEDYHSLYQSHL

[2] = Antiproliferative activity against human NCI cells assessed as reduction in cell viability at 100 uM by MTT assay; type: functional; settings: read-out: GI
[3] = molecular target: T2, Cyclin-dependent kinase 2 (Homo sapiens, UniProt P24941); assay: Inhibition of human CDK2 at 10 uM
[4] = molecular target: T2, Cyclin-dependent kinase 2; assay: Inhibition of CDK2 (unknown origin); settings: concentration not given here
[5] = Inhibition of urease (unknown origin) measured after 20 mins
[6] = molecular target: T3, Dipeptidyl peptidase 4 (Homo sapiens, UniProt P27487); assay: Inhibition of DPP4 (unknown origin)
[7] = Half life in human; type: ADME
[8] = molecular target: GABA-A receptor; anion channel; assay: In vivo receptor occupancy at GABAA receptor in po dosed Sprague-Dawley rat assessed as plasma concentration causing 50% reduction at 0.39 mg/kg measured after 48 hrs by LC/MS method; type: functional, organism-based
[9] = Half life in Sprague-Dawley rat at 1 mg/kg; type: ADME, organism-based; settings: in vivo
[10] = Half life in rhesus monkey at 1 mg/kg, iv; type: ADME, organism-based, Macaca mulatta; settings: in vivo
[11] = Plasma protein binding in rhesus monkey; type: ADME, cell-free; settings: Macaca mulatta
[12] = Half life in dog at 1 mg/kg; type: ADME, organism-based, Canis lupus familiaris; settings: in vivo
[13] = system: Entamoeba histolytica; assay: Antiparasitic activity against Entamoeba histolytica HM1:1MSS assessed as parasitic growth inhibition by microdilution method; type: functional, organism-based
[14] = molecular target: T3, Dipeptidyl peptidase 4; assay: Inhibition of human DPP4
[15] = molecular target: T4, Calcitonin gene-related peptide 1 (Homo sapiens, UniProt P06881); assay: Inhibition of CGRP (unknown origin)
T4 sequence (P06881 whole entry): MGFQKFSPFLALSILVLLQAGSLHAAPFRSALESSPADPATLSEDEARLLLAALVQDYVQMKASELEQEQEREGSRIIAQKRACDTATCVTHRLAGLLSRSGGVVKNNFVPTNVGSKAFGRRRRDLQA

[16] = molecular target: T5, Amine oxidase [flavin-containing] B (Homo sapiens, UniProt P27338); assay: Inhibition of MAO-B (unknown origin)
T5 sequence (P27338 whole entry): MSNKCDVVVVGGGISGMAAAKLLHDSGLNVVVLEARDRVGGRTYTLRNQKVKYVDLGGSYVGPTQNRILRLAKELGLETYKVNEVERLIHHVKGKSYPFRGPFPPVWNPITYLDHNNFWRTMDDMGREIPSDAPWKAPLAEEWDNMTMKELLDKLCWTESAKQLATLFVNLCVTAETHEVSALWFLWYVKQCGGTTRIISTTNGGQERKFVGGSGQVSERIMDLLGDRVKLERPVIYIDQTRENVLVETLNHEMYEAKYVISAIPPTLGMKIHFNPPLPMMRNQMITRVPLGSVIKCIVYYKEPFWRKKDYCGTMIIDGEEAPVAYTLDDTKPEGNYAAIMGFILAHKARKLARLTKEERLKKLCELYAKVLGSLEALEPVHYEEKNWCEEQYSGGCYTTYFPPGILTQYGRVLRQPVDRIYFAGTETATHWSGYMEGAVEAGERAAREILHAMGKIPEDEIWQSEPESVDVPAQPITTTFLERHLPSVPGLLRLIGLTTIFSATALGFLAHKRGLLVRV

[17] = Oral bioavailability in rhesus monkey at 21 mg/kg; type: ADME, organism-based, Macaca mulatta; settings: in vivo
[18] = molecular target: T6, Glucose-dependent insulinotropic receptor (Homo sapiens, UniProt Q8TDV5); assay: Inhibition of GPR119 (unknown origin) at 10 uM
T6 sequence (Q8TDV5 whole entry): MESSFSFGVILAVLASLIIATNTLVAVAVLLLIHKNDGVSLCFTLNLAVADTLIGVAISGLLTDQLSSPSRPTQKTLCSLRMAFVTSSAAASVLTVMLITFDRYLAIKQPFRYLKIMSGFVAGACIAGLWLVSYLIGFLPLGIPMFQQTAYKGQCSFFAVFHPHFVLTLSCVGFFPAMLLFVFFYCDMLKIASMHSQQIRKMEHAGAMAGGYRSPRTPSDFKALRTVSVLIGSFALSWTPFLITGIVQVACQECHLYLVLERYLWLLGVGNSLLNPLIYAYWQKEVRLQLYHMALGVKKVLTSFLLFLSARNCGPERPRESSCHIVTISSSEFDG

[19] = molecular target: T7, Purine nucleoside phosphorylase (Homo sapiens, UniProt P00491); assay: Inhibition of PNP (unknown origin) expressed in Escherichia coli
T7 sequence (P00491 whole entry): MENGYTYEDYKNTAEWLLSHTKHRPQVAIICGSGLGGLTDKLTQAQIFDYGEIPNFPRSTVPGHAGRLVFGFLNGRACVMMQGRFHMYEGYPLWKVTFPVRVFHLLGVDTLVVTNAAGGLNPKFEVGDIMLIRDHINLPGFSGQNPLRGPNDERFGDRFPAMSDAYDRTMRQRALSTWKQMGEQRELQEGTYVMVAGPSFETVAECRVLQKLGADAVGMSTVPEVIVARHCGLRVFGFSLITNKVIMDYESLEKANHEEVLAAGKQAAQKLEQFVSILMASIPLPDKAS

[20] = molecular target: T8, Tyrosinase (Homo sapiens) (UniProt P14679); assay: Inhibition of tyrosinase (unknown origin) assessed as enzyme residual activity at 0.07 mg/ml relative to control; values are per cent of control
T8 sequence (whole entry): T1 sequence (P14679 whole entry)

[21] = molecular target: T8, Tyrosinase (Homo sapiens); assay: Inhibition of tyrosinase (unknown origin) relative to control; settings: concentration not given here
[22] = system: A549; assay: Antiproliferative activity against human A549 cells; type: functional, cell-based
[23] = system: A549; assay: Cytotoxicity against human A549 cells assessed as reduction in cell viability at 100 uM by MTT assay; type: functional, cell-based
[24] = system: MDA-MB-231; assay: Cytotoxicity against human MDA-MB-231 cells assessed as reduction in cell viability at 100 uM by MTT assay; type: functional, cell-based

T3 sequence (P27487 whole entry): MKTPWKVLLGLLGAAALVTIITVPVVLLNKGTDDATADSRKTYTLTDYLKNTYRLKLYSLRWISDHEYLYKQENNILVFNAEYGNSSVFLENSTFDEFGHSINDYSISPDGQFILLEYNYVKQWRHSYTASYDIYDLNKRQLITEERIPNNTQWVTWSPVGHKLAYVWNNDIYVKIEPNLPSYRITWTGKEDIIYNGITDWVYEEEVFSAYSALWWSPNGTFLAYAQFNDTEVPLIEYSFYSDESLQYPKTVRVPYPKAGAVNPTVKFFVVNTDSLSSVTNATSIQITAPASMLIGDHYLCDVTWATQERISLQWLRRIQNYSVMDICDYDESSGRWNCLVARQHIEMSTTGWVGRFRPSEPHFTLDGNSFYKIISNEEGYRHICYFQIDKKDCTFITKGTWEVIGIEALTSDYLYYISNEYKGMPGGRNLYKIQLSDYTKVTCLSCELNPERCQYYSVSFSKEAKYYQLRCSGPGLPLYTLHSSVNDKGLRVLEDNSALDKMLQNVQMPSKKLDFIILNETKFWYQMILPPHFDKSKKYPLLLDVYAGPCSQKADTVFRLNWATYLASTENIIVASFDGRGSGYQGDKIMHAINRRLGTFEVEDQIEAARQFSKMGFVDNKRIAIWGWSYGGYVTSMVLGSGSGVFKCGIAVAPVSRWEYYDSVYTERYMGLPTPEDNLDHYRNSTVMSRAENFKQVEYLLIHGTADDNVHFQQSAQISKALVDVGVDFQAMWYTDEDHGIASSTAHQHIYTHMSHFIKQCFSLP

With `CCOc1ccc(S(=O)(=O)N[C@@H](CO)CC(C)C)cc1-c1nnc2c(n1)c(C)nn2C` the IC50 [1] was 27.9 µM.
`CCOC(=O)c1cnn2c(-c3ccc(Cl)cc3)nc(NCc3ccccc3)nc12` showed an inhibition of growth at 100 µM [2] of 41.8%, an IC50 [3] of 1850 nM and an inhibition [4] of 82.4%.
For `NC(N)=S` [THIOUREA], the IC50 [5] was 20900 nM.
Work on `CCOC(=O)c1cnn2c(=O)c(C(=O)NC(C)(C)C)n[nH]c12` yielded an IC50 [6] of 48.1 µM.
With `Cc1cc(-c2nncc3c(C(C)(C)C)c(OCc4ncnn4C)nn23)no1` the half-life [7] was 210 min, the EC50 [8] was 40.7 nM and the half-life [9] was 30 min. For the same compound, the half-life [10] was 18 min, the EC50 [11] was 0.021 µg/mL (≈ 0.057 µM) and the half-life [12] was 30 min.
`Cc1nnc2n(NC(=S)NC3CCCCCCC3)c(C)nnc1-2` gave an IC50 [13] of 810 nM.
Work on `Cc1nnc2n(NC(=S)NC3C4CC5CC(C4)CC3C5)c(C)nnc1-2` (centres undefined) yielded an IC50 [13] of 540 nM.
With `N/C(=N\O)c1cnn2c(=O)c([N+](=O)[O-])n[nH]c12` the IC50 [14] was 63.6 µM.
Compound `Cc1ccc(Nc2nc(N)nc3cc(-c4ccccc4)nn23)cc1` has an IC50 [15] of 7.6 µM.
Work on `CN(C)CCCNc1nc(N)nc2cc(-c3ccccc3)nn12` yielded an IC50 [15] of 52.2 µM.
With `CCOc1ccc(S(=O)(=O)N[C@@H](C)CO)cc1-c1nnc2c(n1)c(C)nn2C` the IC50 [5] was 37 nM.
In the case of `CCSc1nc(-c2ccc(C)cc2)n2nc(C)cc2n1`, the IC50 [16] is reported as 24.5 µM.
With `COCC(COC)Nc1nc(C)nc2c(-c3ccc(Cl)cc3Cl)c(C)nn12` the bioavailability [17] was 50%.
`CCOc1ccc(S(=O)(=O)N[C@H](CO)CC(C)C)cc1-c1nnc2c(n1)c(C)nn2C` showed an IC50 [5] of 42 nM.
`Nc1nc(Nc2ccc(F)cc2)n2nc(-c3ccccc3)cc2n1` showed an IC50 [18] of 18.4 µM and an IC50 [15] of 51.2 µM.
For `CSC1=NNC2NN=C(C)C2=N1` (centres undefined), the IC50 [19] was 40 µM.
With `Cc1ncc([N+](=O)[O-])n1CCO` [METRONIDAZOLE] the IC50 [13] was 1810 nM.
In the case of `CCOc1ccc(S(=O)(=O)NCCN)cc1-c1nnc2c(n1)c(C)nn2C`, the residual activity [20] is reported as 96.3% and the inhibition [21] is reported as 3.7%.
With `CCOC(=O)c1cnn2c(=O)c([N+](=O)[O-])n[nH]c12` the IC50 [14] was 620 µM.
For `Cc1nnc2n(NC(=S)NC3CCCCC3)c(C)nnc1-2`, the IC50 [13] was 810 nM.
For `CCOC(=O)c1n[nH]c2c(C(=O)OCC)cnn2c1=O`, the IC50 [6] was 54 µM.
In the case of `O=c1cc2nc(-c3ccccc3)nc(SCCc3ccccc3)n2[nH]1`, the IC50 [22] is reported as 53 µM.
In the case of `CCOc1ccc(S(=O)(=O)NC[C@@H](C)O)cc1-c1nnc2c(n1)c(C)nn2C`, the IC50 [5] is reported as 44 nM.
`CCOc1ccc(S(=O)(=O)N[C@H](C)CO)cc1-c1nnc2c(n1)c(C)nn2C` showed an IC50 [1] of 30.8 µM.
Compound `O=C(NCCc1ccccc1)c1cnn2c(-c3ccc(Cl)cc3)nc(NCCc3ccccc3)nc12` has an inhibition of growth at 100 µM [2] of 33.3%, an IC50 [3] of 2090 nM and an inhibition [4] of 82%.
Work on `O=c1[nH]c(=O)n([C@H]2C[C@H](O)[C@@H](CO)O2)cc1F` [FLOXURIDINE] yielded an IC50 [23] of 5.8 µM and an IC50 [24] of 38 µM.
For `N#Cc1cnn2c(=O)c([N+](=O)[O-])n[nH]c12`, the IC50 [14] was 61.1 µM.
